# Earlier results as cited in paper PMC2833348 (Bioorganic & medicinal chemistry letters, 2010).
# Test system: cell - cell fusion (CCF)
# Conditions: read-out: IC50 against cell - cell fusion (CCF)
smiles,measurement,value
COc1ccc(S(=O)(=O)O)cc1/N=N/c1c(S(=O)(=O)O)cc2cc(Nc3nc(Nc4ccccc4)nc(Nc4cc(C)c(/N=N/c5cc(S(=O)(=O)O)cc6cc(S(=O)(=O)O)cc(O)c56)cc4OC)n3)ccc2c1O [ADS-J1],IC50,4.2 µM
